Values of other authors, collected in patent US6087087A, “Treatment of hemoglobin with nitric oxide” (Yonetani; Takashi, priority 1998, dated 2000).
Like-named read-outs stand apart in the source and are kept apart here.

What was measured:
Hb in rats = details: nitroglycerin-induced
blood of the rat = details: rat treated with nitroglycerin

Compound	α-nitrosylHb formed, of the total heme of Hb (Hb in rats)	right shift of the O2 binding curve of blood (blood of the rat)	affinity of NO for Hb relative to CO (Hb (hemoglobin))	affinity of NO for Hb relative to CO (Hb (hemoglobin); listed as nitric oxide)
O=[N+]([O-])OCC(CO[N+](=O)[O-])O[N+](=O)[O-] [nitroglycerin]	less than 2%	approximately 10 torr		
nitric oxide [NO]			> 10^3 fold	more than a thousand-fold higher affinity
